# Experimental data taken from PubChem BioAssay AID179 (DTP/NCI, 2004).
# Active and inactive are the calls of the source.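 The calls were made as follows: active = compounds giving half or more protection of infected cells from virus-caused growth loss, again on retest; inactive = the rest.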 *1 amine or outer side, *2 acyl side, *3 side chain or, on linkers, in order; H or OH if unused. Where a SMILES comes first, the peptide text is derived from it. Bridges are numbered along the chain shown (N, C = ends). [ ]: non-standard residue; d: D form. The star is where a group is joined. Fmoc = O=C(OCC1c2ccccc2-c2ccccc21)*; X2 = O=C(C(CCCCNO[*:3])N[*:1])[*:2]
# System: CEM cells HIV-1 protection, formazan growth assay
# Assay: NCI AIDS Antiviral Assay
# Conditions: for IC50: measured here: growth of uninfected CEM cells
# Description: The ability of compounds to protect human CEM cells from HIV-1 infection is measured as a screen for new compounds capable of inhibiting the HIV virus. Five concentrations of drug were tested on uninfected and infected cells and cell growth was measured using a soluble formazan assay. […] Compounds that provided at least 50% protection were retested. Compounds that provided at least 50% protection on retest were listed as moderately active. Compounds that reproducibly provided 100% protection were listed as confirmed active. […] Note that the inability to provide protection could be due to toxicity.
SMILES,EC50 [µM],IC50 [µM],outcome
Cc1c(O)c2ccccc2n(C)c1=O,> 200,> 200,
NNC(=O)C(CC(C(=O)NN)C(=O)NN)C(=O)NN,> 912,66.1,
Cc1c(-c2coc(-c3ccccc3)n2)c(=O)n(-c2ccccc2)n1C,> 107,> 107,
CCOC(=O)C(=C=C=C(c1ccccc1)c1ccccc1)C(=O)OCC,,,inactive
CC1(C)C(=NNC(=O)C[N+](C)(C)C)C(C)(C)C1=NNC(=O)C[N+](C)(C)C,> 28.8,> 28.8,
Cc1cc(N(CCC#N)S(=O)(=O)c2ccccc2)ccc1/C=C1N=C(/C=C/c2ccccc2)OC\1=O,,,inactive
Cn1c(=O)c2c(nnc(-c3ccccc3)[n+]2[O-])n(C)c1=O,> 200,87.1,
Cc1cc(-c2[nH]c(C(=O)O)cc2I)on1,> 200,> 200,
CN(NC(=O)/C(=C/C=C/c1ccccc1)NC(=O)c1ccccc1)c1cnn(-c2ccccc2)c(=O)c1Cl,> 200,3.24,
CSCCC1OCC2OC(n3ccc(=O)[nH]c3=O)CC2N1O (stereo unspecified),> 200,> 200,
COc1ccc(C[C@H]2COC(=O)[C@@H]2Cc2ccc(OC)c(OC)c2)cc1OC,> 200,123,
COc1ccc(C2C3=C(CCCC3=O)N(c3ccccc3)C3=C2C(=O)CCC3)cc1,> 200,> 200,
C/C(CC(=O)Nc1ccc(Cl)c(Cl)c1)=N/NC(=O)C[N+](C)(C)C,> 34.7,> 34.7,
COc1cccc2c1OC1Sc3ccccc3-c3nn(-c4ccccc4)c-2c31 (stereo unspecified),> 7.08,> 7.08,
Oc1c(Cl)cccc1SSc1cccc(Cl)c1O,> 200,34.7,
CCOC(=O)C(c1ccccc1)c1cccc(C(C(=O)OCC)c2ccccc2)n1 (stereo unspecified),> 17.8,> 17.8,
O=C(OCC(Cl)(Cl)Cl)N1CC[C@H](C2CCCCC2)C1,> 200,50.1,
CSS(C)(=O)=O,> 1120,53.7,
COC(=O)N/N=C(\C)C(CN1CCCCC1)C(C1=C(O)c2ccccc2OC1)c1ccccc1 (stereo unspecified),> 72.4,42.7,
CC(=O)/C=C/c1cc([N+](=O)[O-])ccc1O,> 200,36.3,
CCOP(=O)(CC(=O)c1ccccc1)OCC,> 977,> 977,

SMILES,EC50 [µM],IC50 [µM],outcome
CC1(n2[nH]c(=O)n(-c3ccccc3)c2=O)Cn2c(=O)n(-c3ccccc3)c(=O)n2-c2ccccc21 (stereo unspecified),> 200,> 200,
Nc1ccc(-c2nc3ccccc3s2)cc1S(=O)(=O)O,> 200,60.3,
CCOP(=O)(OCC)OC1CC(n2cnc3c(N(CC)CC)ncnc32)OC1CO[Si](C)(C)C(C)(C)C (stereo unspecified),> 200,31.6,
COC(=O)C(=O)C(C(=O)C=C(C)C)C(=O)C(=O)Nc1cccc(C(C)=O)c1 (stereo unspecified),> 251,,
COC(=O)C(C(=O)C(=O)Nc1cccc(OC)c1)c1cnc2ccccc2n1 (stereo unspecified),> 69.2,> 69.2,
Cc1c2cccc1CSCc1cccc(c1C)CSC2,> 123,> 123,
Cc1cc2ccc(=O)oc2c2c1OC(C)(C)[C@H](OC(=O)C13CCC(C)(C(=O)O1)C3(C)C)[C@@H]2OC(=O)C12CCC(C)(C(=O)O1)C2(C)C (stereo partly specified),0.562,24,
CN(C)C(=S)/N=C(\N)N(C)C,,,inactive
CCOCCOCCCNCC(=O)N1CCN(C(=O)CNCCCOCCOCC)CC1,,,inactive
CC(C)C1(O)C(c2ccccc2)=C(c2ccccc2)C(c2ccccc2)=C1c1ccccc1,,,inactive
CC(=O)c1cccc(NC2C(N)C(NC(=O)N(C)C)(C(C)O)C(C)(O)C2(O)COC(=O)c2c(C)cccc2O)c1 (stereo unspecified),> 64.6,0.0427,
c1ccc2c(c1)[nH]c1c(N3CCOCC3)nnc(N3CCOCC3)c12,> 200,> 200,
CS(=O)(=O)OCCN(CCOS(C)(=O)=O)c1ccc(C=O)cc1,> 200,0.479,
Nc1c(C(=O)Nc2ccc(C3=NCCN3)cc2)cccc1C(=O)Nc1ccc(C2=NCCN2)cc1,> 110,67.6,
COc1cc2c(c(OC)c1OC)C(=O)[C@@H]1[C@H]2N1C(=O)NCCCl,> 200,45.7,
CC(=O)NCCSSSCCNC(C)=O,> 200,0.891,
CS(=O)(=O)OC1CCC2(C#N)CCC1C2=O (stereo unspecified),> 1020,> 1020,
Cc1ccc(S(=O)(=O)NC(=O)NCCCSSCCCNC(=O)NS(=O)(=O)c2ccc(C)cc2)cc1,> 200,> 200,
C=C(C)CN(CC(=C)C)C(=N)OCC1CCCO1 (stereo unspecified),> 200,> 200,
C=C(Br)CC12CC3(CCC1c1ccc(OC)cc1C2=O)OCCO3 (stereo unspecified),> 110,> 110,
Cc1cn(CC2COC(CO)O2)c(=O)[nH]c1=O (stereo unspecified),> 1020,> 1020,

SMILES,EC50 [µM],IC50 [µM],outcome
CCOC(=O)/C(=C\c1ccc(O)c(OC)c1)C(=O)c1ccccc1,> 288,41.7,
Fc1ccc2nncc(SCc3ccc(Cl)c(Cl)c3)c2c1,> 79.4,> 79.4,
COc1ccc(C(=O)N=C2N(c3ccccc3)C(=Nc3ccccc3)C(=Nc3ccccc3)N2c2ccccc2)cc1,> 200,8.32,
CN(CO)c1nc(N(C)CO)nc(N(C)CO)n1,> 26.3,24,
CC(=O)Nc1nnc(SSc2nnc(NC(C)=O)s2)s1,36.3,186,
CCOC(=O)C(NC(C)=O)[CH](c1ccccc1)[Sn]([Cl])([c]1ccccc1)[c]1ccccc1 (stereo unspecified),> 200,91.2,
COCCOC(C)C(=O)C(O)S(=O)(=O)O (stereo unspecified),> 200,186,
COC(=O)C(NC(=O)CNC(=O)CSc1nnc(COc2ccc(Cl)cc2)n1-c1ccccc1)C(C)C (stereo unspecified),> 200,3.63,
CCOC(=O)/C=C(/c1cc(C)[nH]c1C)N(CC)CC,> 200,> 200,
CON(C)C(=O)C(C)NC(=O)OCc1ccccc1 (stereo unspecified),> 933,813,
NCCCC(N)(C(=O)O)C(F)F (stereo unspecified),> 200,129,
CC(=O)NC1C(OCc2ccccc2)OC(CO)C(O)C1OCC(=O)NC(C)C(=O)NC(CCC(=O)NCCCCCNc1c2ccccc2nc2cccc([N+](=O)[O-])c12)C(N)=O (stereo unspecified),> 200,0.0776,
CCN(CC)/C(SCc1ccccc1)=C(\C(Cl)=C(Cl)Cl)[N+](=O)[O-],> 200,34.7,
O=C1C2ON3c4ccccc4C(=O)C3(c3ccccc3)C2C(=O)N1c1ccccc1 (stereo unspecified),> 18.2,> 18.2,
C=C1CCC[C@@H]2[C@@](C)(Cc3cc(O)ccc3O)C(C)CC[C@]12C (stereo partly specified),> 60.3,0.708,
CN(C)C1=CC(=O)C(=O)c2ccncc21,,,inactive
COc1ccc(N2C(=O)C(=O)N(c3ccccc3[N+](=O)[O-])C2=S)cc1,> 200,27.5,
OC(c1ccc(F)cc1)C(F)(F)c1nc2ccccc2o1 (stereo unspecified),> 200,> 200,
CC(C)(CCNc1c2ccccc2nc2cccc([N+](=O)[O-])c12)[N+](C)(C)[O-],> 0.2,0.12,
CC(C)(C)[Si](C)(C)OCC1OC(n2cc(I)c(N)nc2=O)C(O[Si](C)(C)C(C)(C)C)C1O[Si](C)(C)C(C)(C)C (stereo unspecified),> 200,6.76,
CN=C1OC2(c3ccccc3)C3=C(OC(=NC)N2C)C(=O)OC3(c2ccccc2)N1C (stereo unspecified),> 200,148,

SMILES,EC50 [µM],IC50 [µM],outcome
COC(=O)c1ccc(N2CCOS(=O)OCC2)cc1OC(=O)c1ccccc1,> 200,33.1,
O=C1Nc2nc3ccccc3n2N=C2CCCC12 (stereo unspecified),,,inactive
CCOC(=O)C(NC(=O)c1ccccc1)(Nc1ccc(S(=O)(=O)Nc2cc(C)on2)cc1)C(F)(F)F (stereo unspecified),> 200,> 200,
CC(=O)N(C(C)=O)c1ccc(-c2cccs2)oc1=O,> 200,> 200,
NC(=O)CNC(=O)C1CCCN1C(=O)C1CCCCNOC(=O)CCC(NC(=O)OCC2c3ccccc3-c3ccccc32)C(=O)NC(Cc2c[nH]c3ccccc23)C(=O)N1 (stereo unspecified) (Fmoc-EW[X2]PG-NH2; ester 1-3; configuration not given here),70.8,> 100,
Cc1ccc2c(n1)C(N1CCCC1)=CC(=O)C2=O,,,inactive
OC(C#CCN1CCCC1)(c1ccccc1)c1ccccc1Cl.[C-]#[O+].[C-]#[O+].[C-]#[O+].[C-]#[O+].[C-]#[O+].[C-]#[O+].[Co].[Co] (stereo unspecified),> 200,5.25,
Cc1c(S(=O)(=O)c2ccccc2)c(N)n(CCN(C)C)c1C,> 200,44.7,
O=C1NCCS(=O)(=O)N[C@@H](CC2=CC=CCC2)C(=O)N2CCCC12 (stereo partly specified),> 708,> 708,
O=C1NC(=O)c2c1c1cnn(-c3ccccc3)c1n1cccc21,> 74.1,> 74.1,
O=C(OCC12CC3CC(CC(C3)C1)C2)c1ccc(NCc2cc(O)ccc2O)cc1,> 2,1.78,
CCOC(=O)C1=C(O)c2ccc(C)cc2C(=O)C1=O,> 955,324,
O=C(NNC1=NCCCN1)Nc1ccccc1,> 200,> 200,
Cn1c2c3ccccc3nc-2cc2ccccc21,> 174,0.316,
NC(CSS(=O)(=O)O)=NC1CC2CCC1C2 (stereo unspecified),> 200,120,
Nc1ccc2c(O)c(N=Nc3ccc(N=Nc4ccc(S(=O)(=O)O)cc4)cc3)c(S(=O)(=O)O)cc2c1N=Nc1ccc(N=Nc2ccc(S(=O)(=O)O)cc2)cc1,,,active
O=C(O)C(=C\c1ccc2c(c1)OCO2)/C(=C/c1ccc2c(c1)OCO2)C(=O)O,,,inactive
COc1c(Cl)cc(C(=CCCNC(=O)C[C@H]2CC[C@@]3(C)[C@@H](CC[C@@H]4[C@@H]3CC[C@]3(C)[C@@H](CC(=O)NCCC=C(c5cc(Cl)c(OC)c(C(=O)O)c5)c5cc(Cl)c(OC)c(C(=O)O)c5)CC[C@@H]43)C2)c2cc(Cl)c(OC)c(C(=O)O)c2)cc1C(=O)O,> 200,148,
